Test results reported in patent US20220162191A1, “SMALL MOLECULE MODULATORS OF IL-17” (LEO PHARMA A/S, priority 2019, published 2022).

Target: T1, human IL-17AA (Homo sapiens, UniProt Q16552)
T1 construct: host or cells: HEK (human embryonic kidney) cells
T1 sequence (Q16552 24-155) 1: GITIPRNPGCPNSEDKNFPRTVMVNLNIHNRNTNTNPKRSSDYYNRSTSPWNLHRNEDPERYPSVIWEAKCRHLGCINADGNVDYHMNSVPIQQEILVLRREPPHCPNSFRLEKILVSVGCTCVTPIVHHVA
T1 sequence (Q16552 24-155) 2: T1 sequence (Q16552 24-155) 1
Experiment: IL-8 release assay in human epithelial keratinocytes adult (HEKa)
Assay type: cell-based
Conditions: 3 ng/ml human IL-17AA + 10 ng/ml human TNFalpha, 68-72 h, IL-8 by HTRF, read-out: Rel EC50 L-8 release assay
Description: Example: IL-8 release assay in human epithelial keratinocytes adult (HEKa) Keratinocytes were seeded at 3500 cells/well in 384-well ViewPlates (Perkin Elmer) in Epilife medium (Thermo Fisher) containing human keratinocyte growth supplement (HKGS) without hydrocortisone and incubated in a humid incubator at 37° C., 5% CO2, overnight. The following day growth medium was removed and 25 μl fresh Epilife 10 medium added. 75 nl test compound in 100% DMSO was added into each well reserved
for test compounds, by the use of acoustic pipetting. The remaining wells received an equal volume of DMSO only, as vehicle control, or terfenadine in DMSO, as a positive control for any cytotoxic compounds. Subsequently, another 25 μl Epilife medium was added to each well. Finally, wells containing test compounds and wells prepared to yield 15 maximum stimulation received 25 μl of 9 ng/ml recombinant, human embryonic kidney cell (HEK)-derived human IL-17AA+30 ng/ml human TNF-alpha, in Epilife medium. Wells prepared to define 100% inhibition of IL-17 effects received 25 μl of 30 ng/ml human TNF-alpha alone, in Epilife medium. Final concentrations were 3 ng/ml HEKhuman IL-17AA+10 ng/ml human TNFalpha (maximum stimulation) and 10 ng/ml 20 human TNFalpha alone (100% inhibition, Emax), respectively. Cells were incubated for 68-72 h in the incubator. IL-8 released from the cells was measured by the use of a commercial homogenous time-resolved fluorescence (HTRF) assay (CisBio). 2 μl cell culture supernatant was transferred to a 384-well Proxiplate. 5 μl HTRF reagent was added and the plates incubated sealed in the dark for 3-22 h at room temperature. Time resolved fluorescence was read at 665 vs 620 nm, with excitation at 320 nm, and IL-8 levels calculated as percent of controls. Reduction of the amount of secreted IL-8 indicates decreased IL-17 signaling. Concentration response curves were fitted by the use of a four-parameter logistic equation. Relative IC50 and Emax were reported from 5 curves showing acceptable fit (r2>0.9). Cytotoxicity was measured in the cell-containing
Compounds of the present invention were tested in the IL-8 release assay in human epithelial keratinocytes.

Row | Compound | EC50 [nM]
1 | Cn1cncc1-c1ccc(NC(=O)C(Cc2cc(-c3ccnc(N4CCNCC4)c3)ccc2Cl)NC(=O)c2ccnn2C)cc1 (centres unmarked) [Example 197, N-[1-[[2-chloro-5-(2-piperazin-1-yl-4-pyridyl)phenyl]methyl]-2-[4-(3-methylimidazol-4-yl)anilino]-2-oxo-ethyl]-2-methyl-pyrazole-3-carboxamide] | 100 to 1000
2 | CN(C)C(=O)c1cc(-c2ccc(Cl)c(CC(NC(=O)c3ccnn3C)C(=O)Nc3ccc(-c4nncn4C)cc3)c2)ccc1O (centres unmarked) [Example 167, N-[1-[[2-chloro-5-[3-(dimethylcarbamoyl)-4-hydroxy-phenyl]phenyl]methyl]-2-[4-(4-methyl-1,2,4-triazol-3-yl)anilino]-2-oxo-ethyl]-2-methyl-pyrazole-3-carboxamide] | > 1000
3 | Cc1cnn(C)c1-c1ccc(NC(=O)[C@H](Cc2cc(-c3ccc(=O)n(C(C)C)c3)ccc2Cl)NC(=O)C2(C)CC2)cc1 [Example 334, N-[(1S)-1-[[2-chloro-5-(1-isopropyl-6-oxo-3-pyridyl)phenyl]methyl]-2-[4-(2,4-dimethylpyrazol-3-yl)anilino]-2-oxo-ethyl]-1-methyl-cyclopropanecarboxamide] | 100 to 1000
4 | Cc1ncn(C)c1-c1ccc(NC(=O)[C@H](Cc2cc(-c3ccnc(N4CCN(C)CC4)c3)ccc2Cl)NC(=O)c2ccnn2C)cc1 [Example 213, N-[(1S)-1-[[2-chloro-5-[2-(4-methylpiperazin-1-yl)-4-pyridyl]phenyl]methyl]-2-[4-(3,5-dimethylimidazol-4-yl)anilino]-2-oxo-ethyl]-2-methyl-pyrazole-3-carboxamide] | 100 to 1000
5 | CC(C)n1cc(-c2ccc3c(c2)[C@H]([C@H](NC(=O)c2ccnn2C)C(=O)Nc2ccc(-c4cncn4C)c(O)c2)CCC3)ccc1=O [Example 49, N-[(1S)-2-[3-hydroxy-4-(3-methylimidazol-4-yl)anilino]-1-[(1R)-7-(1-isopropyl-6-oxo-3-pyridyl)tetralin-1-yl]-2-oxo-ethyl]-2-methyl-pyrazole-3-carboxamide] | < 100
6 | CC(C)n1cc(-c2ccc3c(c2)[C@H]([C@H](NC(=O)c2ccnn2C)C(=O)Nc2ccc(-c4cncn4C)cc2)CC3)ccc1=O [Example 3, N-[(1S)-1-[(1R)-6-(1-isopropyl-6-oxo-3-pyridyl)indan-1-yl]-2-[4-(3-methylimidazol-4-yl)anilino]-2-oxo-ethyl]-2-methyl-pyrazole-3-carboxamide] | 100 to 1000
7 | Cc1ncn(C)c1-c1ccc(NC(=O)[C@H](Cc2cc(-c3ccc(=O)n(C(C)C)c3)ccc2Cl)NC(=O)OC2CC2)cc1 [Example 201, cyclopropyl N-[(1S)-1-[[2-chloro-5-(1-isopropyl-6-oxo-3-pyridyl)phenyl]methyl]-2-[4-(3,5-dimethylimidazol-4-yl)anilino]-2-oxo-ethyl]carbamate] | 100 to 1000
8 | Cc1cnn(C)c1-c1ccc(NC(=O)[C@H](Cc2cc(-c3ccc(=O)n(C(C)C)c3)ccc2Cl)NC(=O)c2conc2C)cc1 [Example 118, N-[(1S)-1-[[2-chloro-5-(1-isopropyl-6-oxo-3-pyridyl)phenyl]methyl]-2-[4-(2,4-dimethylpyrazol-3-yl)anilino]-2-oxo-ethyl]-3-methyl-isoxazole-4-carboxamide] | < 100
9 | Cc1n[nH]c(C)c1-c1ccc(NC(=O)[C@H](Cc2cc(-c3ccnc(N4CCC5(CC4)COC5)n3)ccc2Cl)NC(=O)C2(F)CC2)cc1 [Example 317, N-[(1S)-1-[[2-chloro-5-[2-(2-oxa-7-azaspiro[3.5]nonan-7-yl)pyrimidin-4-yl]phenyl]methyl]-2-[4-(3,5-dimethyl-1H-pyrazol-4-yl)anilino]-2-oxo-ethyl]-1-fluoro-cyclopropanecarboxamide] | < 100
10 | Cc1n[nH]c(C)c1-c1ccc(NC(=O)[C@@H](NC(=O)C2(F)CC2)[C@@H]2CCCc3ccc(-c4ccnc(N5C[C@@H]6C[C@H]5CO6)c4)cc32)cc1 [Example 29, N-[(1S)-2-[4-(3,5-dimethyl-1H-pyrazol-4-yl)anilino]-1-[(1R)-7-[2-[(1S,4S)-2-oxa-5-azabicyclo[2.2.1]heptan-5-yl]-4-pyridyl]tetralin-1-yl]-2-oxo-ethyl]-1-fluoro-cyclopropanecarboxamide] | < 100
11 | Cc1n[nH]c(C)c1-c1ccc(NC(=O)[C@@H](NC(=O)c2ccnn2C)[C@@H]2CCc3ccc(-c4ccc5c(c4)CN(C)C5)cc32)cc1 [Example 10, N-[(1S)-2-[4-(3,5-dimethyl-1H-pyrazol-4-yl)anilino]-1-[(1R)-6-(2-methylisoindolin-5-yl)indan-1-yl]-2-oxo-ethyl]-2-methyl-pyrazole-3-carboxamide] | < 100
12 | Cc1n[nH]cc1-c1ccc(NC(=O)[C@H](Cc2cc(-c3ccc(=O)n(C(C)C)c3)ccc2Cl)NC(=O)c2ccnn2C)cc1O [Example 174, N-[(1S)-1-[[2-chloro-5-(1-isopropyl-6-oxo-3-pyridyl)phenyl]methyl]-2-[3-hydroxy-4-(3-methyl-1H-pyrazol-4-yl)anilino]-2-oxo-ethyl]-2-methyl-pyrazole-3-carboxamide] | < 100
13 | COCCOCCn1cc(-c2ccc(-c3ccc(Cl)c(CC(NC(=O)c4ccnn4C)C(=O)Nc4ccc(-c5c(C)n[nH]c5C)cc4)c3)cc2)nn1 (centres unmarked) [Example 313, N-[1-[[2-chloro-5-[4-[1-[2-(2-methoxyethoxy)ethyl]triazol-4-yl]phenyl]phenyl]methyl]-2-[4-(3,5-dimethyl-1H-pyrazol-4-yl)anilino]-2-oxo-ethyl]-2-methyl-pyrazole-3-carboxamide] | < 100
14 | Cc1nocc1C(=O)NC(Cc1cc(-c2ccc(=O)n(C(C)C)c2)ccc1Cl)C(=O)Nc1ccc(-c2ccnn2C)c(Cl)c1 (centres unmarked) [Example 102, N-[1-[[2-chloro-5-(1-isopropyl-6-oxo-3-pyridyl)phenyl]methyl]-2-[3-chloro-4-(2-methylpyrazol-3-yl)anilino]-2-oxo-ethyl]-3-methyl-isoxazole-4-carboxamide] | 100 to 1000
15 | CC(C)n1cc(-c2cccc(C(c3ccccc3)C(NC(=O)OC3CC3)C(=O)Nc3ccc(-c4cncn4C)cc3)c2)ccc1=O (single isomer, unassigned; diastereomer 4) [Example 241, cyclopropyl N-[1-[[3-(1-isopropyl-6-oxo-3-pyridyl)phenyl]-phenyl-methyl]-2-[4-(3-methylimidazol-4-yl)anilino]-2-oxo-ethyl]carbamate (Diastereomer 4)] | > 1000
16 | Cc1[nH]ncc1-c1ccc(NC(=O)C(Cc2cc(-c3ccc(=O)n(C(C)C)c3)ccc2Cl)NC(=O)OC(C)(C)C)cc1 (centres unmarked) [Example 90, tert-butyl N-[1-[[2-chloro-5-(1-isopropyl-6-oxo-3-pyridyl)phenyl]methyl]-2-[4-(5-methyl-1H-pyrazol-4-yl)anilino]-2-oxo-ethyl]carbamate] | 100 to 1000
17 | Cn1cnnc1-c1ccc(NC(=O)C(Cc2cc(-c3ccc(O)c(CN4CCOCC4)c3)ccc2Cl)NC(=O)c2ccnn2C)cc1 (centres unmarked) [Example 130, N-[1-[[2-chloro-5-[4-hydroxy-3-(morpholinomethyl)phenyl]phenyl]methyl]-2-[4-(4-methyl-1,2,4-triazol-3-yl)anilino]-2-oxo-ethyl]-2-methyl-pyrazole-3-carboxamide] | 100 to 1000
18 | Cc1ncn(C)c1-c1ccc(NC(=O)[C@H](Cc2cc(-c3cnn(C(C)(C)C)c3)ccc2Cl)NC(=O)c2ccnn2C)cc1 [Example 182, N-[(1S)-1-[[5-(1-tert-butylpyrazol-4-yl)-2-chloro-phenyl]methyl]-2-[4-(3,5-dimethylimidazol-4-yl)anilino]-2-oxo-ethyl]-2-methyl-pyrazole-3-carboxamide] | < 100
19 | Cc1n[nH]c(C)c1-c1ccc(NC(=O)[C@@H](NC(=O)C2(F)CC2)[C@@H]2CCc3ccc(-c4cncc(N5C[C@@H]6C[C@H]5CO6)c4)cc32)cc1 [Example 377, N-[(1S)-2-[4-(3,5-dimethyl-1H-pyrazol-4-yl)anilino]-1-[(1R)-6-[5-[(1S,4S)-2-oxa-5-azabicyclo[2.2.1]heptan-5-yl]-3-pyridyl]indan-1-yl]-2-oxo-ethyl]-1-fluoro-cyclopropanecarboxamide] | < 100
20 | Cc1cnn(C)c1-c1ccc(NC(=O)[C@H](Cc2cc(-c3ccc(=O)n(C(C)C)c3)ccc2Cl)NC(=O)C(C)C2CC2)cc1 (stereo partly drawn) [Example 332, (2S)-3-[2-chloro-5-(1-isopropyl-6-oxo-3-pyridyl)phenyl]-2-(2-cyclopropylpropanoylamino)-[4-(2,4-dimethylpyrazol-3-yl)phenyl]propanamide] | > 1000
